Measured values: patent publication US6420367B1, “Pyrimidine derivatives exhibiting antitumor activity” (Shionogo & Co., Ltd., priority 1998, dated 2002)
Converted amounts (≈) assume the structure as drawn.

Experiments:
[1] = system: DT-C cells (pGV-P-transfected v-ki-ras-transformed NIH3T3 cells); assay: Luciferase activity in control DT-C cells (IC50-C): non-specific transcription-inhibitory effect or cytotoxicity; assay type: cell-based, mouse; details: tested concentration nearest to 50% inhibition in DT-C cells; index of non-specific transcription inhibition or cytotoxicity
Source text: Test Example 1 Inhibitory Effect Against Cellular Signaling Derived From Ras Oncogene Products
1) Establishment of Cell Lines Used in Assay
Based on the reporter plasmid (pGV-P (Toyo Ink, Japan)), in which luciferase gene was ligated to SV40-derived minimal promoter, we constructed a plasmid designated pRRE3-luc by inserting 3 copies of chemically synthesized oligonucleotides (Sequence: CAGGATATGACTCT, derived from mouse NVL-3 (M. A. Reddy et al.(1992)Mol. Endocrinol., 6, 1051)) into upstream of the promoter. v-ki-ras-transformed NIH3T3 cells (DT cells, provided by Dr. Makoto Noda (Kyoto Univ., School of medicine)) were transfected with this plasmid by liposome-mediated transfection and transfected cell lines stably incorporated and maintained each plasmid were obtained. We named pGV-P and pRRE3-transfected cell line as DT-C and DT-R, respectively and used in the assay described below.
2) Preparation of Samples
i) All the cell lines were cultured in Dulbecco's Modified Essential Medium (DMEM: 10% Fetal Calf Serum(FCS: Hyclone, USA)) including […] kanamycin (Meiji Seika, Japan) in humidified incubator under condition of 5% CO2 at 37° C.
ii) DT-C and DT-R cells were seeded at 2500 cells/well into flat-bottom 96 well multiplate (Sumitomo bakelite) and incubated for 24 hours.
iii) Test compounds were prepared as 1 mg/ml DMSO solution.
iv) The solution of test compounds were added to the culture. Tested compounds are used at the concentration from […] to 0.51 ng/ml with by 3-fold dilution.
v) After 24 hours, the culture supernatant was completely aspirated and […] of cell-lysing solution (PGC-50 (Toyo Ink, Japan)) was added before cells were dried up. In order to the cells were lysed completely, multiwell plates were left at room temperature for 10 to 30 min. The plates were wrapped up and stored at −20° C. till the day of measurement.
3) Measurement of Samples
i) Melt the samples by putting 96 well multiplate at 37° C. and add 90 μl/well 25 mM Tris (pH 7.5).
ii) Transfer 50 μl of the sample (110 μl) to the 96 well microplate for measurement (Microlite 1 (Dynatech)).
iii) Measure the samples by the luminometer, LUMINOUS CT9000D (Dia-Yatron, Japan). We used Pickagene luminescence kit PGL2000 or LT2.0 (Toyo Ink, Japan) as substrates for luminescence measurement (50 μl/well).
4) Judgment of the Results
i) The luciferase activity of DT-C cells and DT-R cells were plotted in the graph where the relative activity and the compound concentration were expressed as Y-axis and X-axis, respectively. We judged by the degree of dissociation between the activities of DT-C cells and DT-R cells as an index.
ii) Concretely, efficacy of the compound was expressed by two values described below.
b) Among the points of concentration tested, the concentration which is the nearest to 50% inhibition concentration at DT-C cells (IC50-C), was shown as an index of non-specific transcription-inhibitory effect or of cytotoxicity. In case of positive compounds, 50% inhibition concentration above the area of active concentration in DT-C cells was expressed as IC50-C.

[2] = system: human squamous lung cancer Ma44; assay: In vitro cell growth inhibition test, MTT assay; assay type: cell-based; details: MTT assay 4 days after compound addition
Method in brief: (§1)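 Panel of human carcinoma lines, including PANC-1, assessed in vitro; inhibition of cell growth quantified via MTT.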

[3] = system: human squamous lung cancer RERF-RC-AI; assay: In vitro cell growth inhibition test, MTT assay; assay type: cell-based; details: MTT assay 4 days after compound addition
Method in brief: as §1

[4] = system: human lung adenocarcinoma A549; assay: In vitro cell growth inhibition test, MTT assay; assay type: cell-based; details: MTT assay 4 days after compound addition
Method in brief: as §1

[5] = system: DT-R cells (pRRE3-luc-transfected v-ki-ras-transformed NIH3T3 cells); signal derived from Ras oncogene products; assay: Inhibitory effect against cellular signaling derived from Ras oncogene products: luciferase reporter, dissociation of DT-R from DT-C activity (MAC); assay type: cell-based, mouse; details: minimal tested concentration at which luciferase activities of DT-C cells and DT-R cells dissociated
Method in brief: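 Value is a minimal active concentration: lowest dose where Ras-responsive reporter (DT-R) luciferase diverges from SV40-minimal-promoter control (DT-C). Both transfected v-Ki-ras NIH3T3 lines received 3-fold serial dilutions for 24 h at 37 °C in 10% FCS medium before lysis and luminometry.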

[6] = system: human pancreas cancer PANC-1; assay: In vitro cell growth inhibition test, MTT assay; assay type: cell-based; details: MTT assay 4 days after compound addition
Method in brief: as §1

human colon cancer HT29 = assay: In vitro cell growth inhibition test, MTT assay; assay type: cell-based; details: MTT assay 4 days after compound addition
Method in brief: as §1

Row | Structure (SMILES) | IC50, Ma44 [2] [µg/mL] | IC50, RERF-LC-AI [3] [µg/mL] | IC50, A549 [4] [µg/mL] | IC50, PANC-1 [6] [µg/mL] | IC50, HT29 (human colon cancer HT29) [µg/mL] | IC50-C [1] [µg/mL] | MAC (Minimal Active Concentration) [5] [µg/mL]
1 | CCNC(=Nc1nc(C)ncc1CSc1nnc(-c2ccccc2N)o1)NCC [Compound A-24] | 0.028 (≈ 0.0679 µM) | 0.0071 (≈ 0.0172 µM) | 0.026 (≈ 0.063 µM) | – | – | 3.33 (≈ 8.07 µM) | 0.0137
2 | CCCNC(=Nc1nc(C)ncc1CSc1nnc(-c2ccccc2N)o1)NCC [Compound A-36] | 0.026 (≈ 0.061 µM) | 0.0072 (≈ 0.0169 µM) | – | 0.014 (≈ 0.0328 µM) | 0.015 (≈ 0.0352 µM) | 3.33 (≈ 7.81 µM) | 0.0412
3 | CCNC(=Nc1nc(C)ncc1CSc1nnc(-c2ccc(F)cc2N)o1)NCC [Compound A-49] | 0.0032 (≈ 0.00743 µM) | 0.0016 (≈ 0.00372 µM) | – | – | 0.0028 (≈ 0.0065 µM) | 3.33 (≈ 7.73 µM) | <0.000508
4 | CCNC(=Nc1nc(C)ncc1CSc1nnc(-c2ccc(F)cc2NC(C)=O)o1)NCC [Compound A-60] | 0.012 (≈ 0.0254 µM) | 0.004 (≈ 0.00846 µM) | – | 0.0039 (≈ 0.00825 µM) | – | >10 | <0.000508
5 | CCNC(=Nc1nc(C)ncc1CSc1nnc(-c2ccc(C)cc2N)o1)NCC [Compound A-63] | 0.053 (≈ 0.124 µM) | 0.006 (≈ 0.0141 µM) | – | 0.0087 (≈ 0.0204 µM) | – | 3.33 (≈ 7.81 µM) | 0.0412
6 | CCNC(=Nc1nc(C)ncc1CSc1nnc(-c2ccc(N)cc2O)o1)NCC [Compound A-96] | – | – | – | – | – | >10 | 0.370
7 | CCNC(=Nc1ncncc1CSc1nnc(-c2ccc(F)cc2)o1)NCC [Compound A-110] | 0.063 (≈ 0.157 µM) | 0.006 (≈ 0.0149 µM) | 0.042 (≈ 0.105 µM) | – | 0.0077 (≈ 0.0192 µM) | >10 | 0.123
8 | CCNC(=Nc1ncncc1CSc1nnc(-c2ccc(N)cc2)o1)NCCOC(C)=O [Compound A-112] | 2 (≈ 4.38 µM) | 0.023 (≈ 0.0504 µM) | 0.38 (≈ 0.832 µM) | – | 0.064 (≈ 0.14 µM) | >10 | 1.11
9 | CCNC(=Nc1nc(CC)ncc1CSc1nnc(-c2ccc(N)cc2)o1)NCC [Compound A-154] | 0.04 (≈ 0.0938 µM) | 0.008 (≈ 0.0188 µM) | – | 0.018 (≈ 0.0422 µM) | 0.012 (≈ 0.0281 µM) | >10 | 0.0412
10 | CCCNC(=Nc1nc(C)ncc1CSc1nnc(-c2ccc(N)cc2)o1)NCCC.Cl.Cl [Compound A-160] | – | – | – | – | – | >10 | 0.0137
11 | CCNC(=Nc1nc(C)ncc1CSc1nnc(-c2ccc([N+](=O)[O-])cc2)o1)NC.Cl [Compound A-163] | – | – | – | – | – | >10 | 0.0137
12 | CCCNC(=Nc1nc(C)ncc1CSc1nnc(-c2ccc([N+](=O)[O-])cc2)o1)NC.Cl [Compound A-164] | – | – | – | – | – | >10 | 0.0137
13 | CCNC(=Nc1nc(C)ncc1CSc1nnc(-c2cccnc2N)o1)NCC [Compound D-1] | – | – | – | – | – | >10 | 1.11
14 | CCNC(=Nc1ncncc1CSc1nnc(-c2ccsc2)o1)NCC [Compound D-21] | 0.35 (≈ 0.899 µM) | 0.013 (≈ 0.0334 µM) | 0.049 (≈ 0.126 µM) | – | 0.016 (≈ 0.0411 µM) | >10 | 0.37
15 | CCNC(=Nc1nc(C)ncc1CSc1nnc(-c2ccsc2NC(C)=O)o1)NCC [Compound D-36] | 0.065 (≈ 0.141 µM) | 0.023 (≈ 0.0499 µM) | 0.032 (≈ 0.0695 µM) | – | 0.049 (≈ 0.106 µM) | >10 | 0.0412
16 | CCNC(=Nc1nc(C)ncc1CSc1nnc(-c2ccc([N+](=O)[O-])cn2)o1)NCC [Compound D-45] | 0.74 (≈ 1.67 µM) | 0.062 (≈ 0.14 µM) | 0.0061 (≈ 0.0138 µM) | 0.12 (≈ 0.271 µM) | 0.038 (≈ 0.0857 µM) | – | 1.11

Second part, led by results:

Row | IC50, Ma44 [2] [µg/mL] | IC50, RERF-LC-AI [3] [µg/mL] | IC50, A549 [4] [µg/mL] | IC50, PANC-1 [6] [µg/mL] | IC50, HT29 (human colon cancer HT29) [µg/mL] | Structure (SMILES) | IC50-C [1] [µg/mL] | MAC (Minimal Active Concentration) [5] [µg/mL]
17 | 0.055 (≈ 0.117 µM) | 0.016 (≈ 0.0341 µM) | 0.06 (≈ 0.128 µM) | – | – | CCNC(=Nc1nc(C)ncc1CSc1nnc(-c2ccccc2NC(=O)CC)o1)NCC [Compound A-26] | >10 | 0.370
18 | 0.24 (≈ 0.563 µM) | 0.021 (≈ 0.0492 µM) | – | 0.025 (≈ 0.0586 µM) | 0.03 (≈ 0.0703 µM) | CCNC(=Nc1nc(CC)ncc1CSc1nnc(-c2ccccc2N)o1)NCC [Compound A-37] | 3.33 (≈ 7.81 µM) | 0.0412
19 | 0.018 (≈ 0.0403 µM) | 0.0061 (≈ 0.0136 µM) | – | 0.16 (≈ 0.358 µM) | 0.0061 (≈ 0.0136 µM) | CCNC(=Nc1nc(C)ncc1CSc1nnc(-c2ccc(Cl)cc2N)o1)NCC [Compound A-44] | 3.33 (≈ 7.45 µM) | <0.000508
20 | 0.088 (≈ 0.204 µM) | 0.012 (≈ 0.0279 µM) | – | – | 0.028 (≈ 0.065 µM) | CCNC(=Nc1nc(C)ncc1CSc1nnc(-c2c(N)cccc2F)o1)NCC [Compound A-51] | 3.33 (≈ 7.73 µM) | 0.123
21 | 0.016 (≈ 0.0327 µM) | 0.0041 (≈ 0.00838 µM) | – | 0.0063 (≈ 0.0129 µM) | – | CCNC(=Nc1nc(C)ncc1CSc1nnc(-c2ccc(Cl)cc2NC(C)=O)o1)NCC [Compound A-61] | >10 | <0.000508
22 | 0.09 (≈ 0.203 µM) | 0.034 (≈ 0.0768 µM) | 0.15 (≈ 0.339 µM) | – | 0.041 (≈ 0.0926 µM) | CCNC(=Nc1ncncc1CSc1nnc(-c2ccc(C(N)=S)cc2)o1)NCC [Compound A-123] | >10 | 1.11
23 | 0.024 (≈ 0.0523 µM) | 0.022 (≈ 0.048 µM) | 0.026 (≈ 0.0567 µM) | – | 0.028 (≈ 0.0611 µM) | CCNC(=Nc1ncncc1CSc1nnc(-c2ccc([N+](=O)[O-])cc2OC)o1)NCC [Compound A-124] | >10 | 0.0137
24 | 0.085 | 0.016 | 0.051 | 0.021 | 0.032 | CCNC(=Nc1nc(C)ncc1CSc1nnc(-c2ccc(N)cc2OC)o1)NCC.Cl [Compound A-189] | – | 0.0412
25 | 0.52 (≈ 1.3 µM) | 0.11 (≈ 0.276 µM) | 0.22 (≈ 0.552 µM) | – | 0.09 (≈ 0.226 µM) | CCNC(=Nc1ncncc1CSc1nnc(-c2ccc(C)nc2)o1)NCC [Compound D-29] | >10 | 1.11
26 | 2.4 (≈ 6.43 µM) | 0.046 (≈ 0.123 µM) | 0.1 (≈ 0.268 µM) | – | 0.033 (≈ 0.0884 µM) | CCNC(=Nc1ncncc1CSc1nnc(-c2ccoc2)o1)NCC [Compound D-30] | >10 | 1.11
